Patent publication US20260083687A1, “COMPOUNDS FOR REDUCING LACTATION AND IMPROVING HEALTH” (AHV International B.V., priority 2022, published 2026)

Legend:
Assay type in all cases: in vivo, cow
[1] = system: cows (Holstein Friesians); test: Treatment with DPD analogs (organosulfur compounds) and milk yield (Example 8); conditions: individual cows; dose per compound as listed in E284
cows = test: Administering of DPD at abrupt dry off and occurrence of mastitis / new intramammary infections, milk leakage, SCC (Example 10)
Protocol: Study design. Cow description. 59 cows from 5 different farms were used for this study. The cows were randomly divided into 3 groups: • Control group; • DPD Treatment group 1: DC Liquid (500 mL) group (composition with 80 ml pure dipropyl disulfide); and • DPD Treatment group 2: DPD enriched onion Extract (OE) bolus (150 mL) group (corresponding to 80 ml pure dipropyl disulfide).
The control group consisted of 24 cows with an average milk production prior to dry off of 17.23 liters. […] The average lactation of the control group was 2.1 and they had on average a dry period of 48 days (10 animals in 1st lactation, 4 in 2nd lactation, 6 in 3th lactation and 4 in 4th lactation). 50% of all cows in the control group were observed leaking milk regardless of milk production prior to dry off, and the incidence goes up to 63% if the cows with production below or equal to 12.5 liters prior to dry off or discarded.
The DC Liquid treatment group consisted of 18 cows with an average mp prior to dry off of 21.61 liters (1 cow with a mp lower than 12.5 liters, lowest 11.40 liters and highest 32 liters). The average lactation of the DC Liquid group was 1.9 with 11 cows in 1st lactation, 2 cows in 2nd, 3 cows in 3th, and 2 cows in 5th lactation. The average dry period of this group was 49 days.
The DPD enriched OE bolus treatment group consisted of 17 cows with an average mp prior to dry off of 20.6 liters (lowest 13.8 and high 32 liters) and an average lactation of 2.2 (6 cows in 1 s lactation, 4 cows in 2nd, 4 cows in 3th, and 3 cows in 4th lactation). 1 cow dropped out during the dry period because of non-related lameness issues. The dry period of this group was on average 46 days.
After the last milking the cows received the dry off protocol according to the farms protocols. The DPD treatment groups received a DPD treatment in the form of a bolus dose by bolus shooter in the rumen. Both treatment groups consisted of treatment with 80 ml DPD. In all cases abrupt dry-off was applied, with no restriction in number of milking nor change of feed prior to dry-off. Before moving to the dry pen all cows underwent hoof trimming. During the dry period and after calving the cows were monitored for signs of mastitis. Before the cows were 30 days in lactation a SCC was determined to evaluate the dry period.
Intramammary infections (IMI) were defined as signs of a clinical mastitis (ao. Flocks, watery milk, coloring of milk) cases during the dry period and in the first 30 days in lactation or a rise in individual somatic cell count (ISCC) from before to after the dry period (threshold: 200,000 cells/mL) or both.

[2] = system: Holstein Frisian dairy cows; test: Effect of 80 ml synthetic DPD on udder pressure, stress behavior and milk leakage after abrupt dry off (Example 3)
Protocol: Holstein Frisian dairy cows were selected with a production of at least 12.5 kg milk/day at the last lactation. These cows were immediately treated after the last milking before abrupt dry off with 80 ml di-n-propyl disulfide (DPD) took place in the three studies of this example. Because of a limited number of available cows, a control group was available only in study 3. Treated cows were monitored for udder pressure, milk leakage and stress after the last milking every 12 hours for the first 72 hours.
46 Dairy cows (Holstein Frisian) from 7 farms in The Netherlands were enrolled in this field study for two months. In table 8 a description is presented with respect to some keeping conditions of and information about the cows.
After the last milking, the cows were isolated from the other lactating cows. Only at farm 2 and 6 the cows could hear the milking machine. After isolation the cows were administered 80 ml synthetic DPD. Hereafter, the cows were monitored by the farmer for 72 hours and scored each 12 hour after abrupt dry off. The farmer scored visually for milk leakage (yes/no-scores), udder pressure and stress according to a standard scoring form (see tables 9 and 10). Cows somatic cell count numbers were extracted from the last milk recording before drying and the first milk recording after calving (5-30 Days In Lactation).
Data analysis: the control groups with respect to milk leakage, udder stress and stress were scored and compared with the data as presented earlier in literature. For milk leakage, the data were compared assumed that 24.5% of the cows are going to leak milk after drying off (De Prado-Taranilla et al., 2020. Incidence of milk leakage after dry-off in European dairy herds, related risk factors, and its role in new intramammary infections. Journal of Dairy Science, 103(10), 9224-9237.). Udder Pressure (Bertulat et al., 2013. Measurement of fecal glucocorticoid metabolites and evaluation of udder characteristics to estimate stress after sudden dry-off in dairy cows with different milk yields. Journal of Dairy Science, 96(6), 3774-3787) and Stress (Chapinal et al., 2014. Changes in lying behavior after abrupt cessation of milking and regrouping at dry-off in free stall-housed cows: A case study. Journal of Veterinary Behavior, 9(6), 364-369;) were translated to the scoring tables as expected outcome (table 11).

[3] = 80 ml synthetic DPD, abrupt dry off, vs control group

Compound: CCCSSCCC [DPD, di-n-propyl disulfide]
- Milk yield (kg) After 24 h [1]: 8.5 kg
- Milk yield (kg) After 48 h [1]: 7.4 kg
- Milk yield (kg) After 72 h [1]: 15.6 kg
- Milk yield (kg) After 96 h [1]: 17.7 kg
- outcome of animals that entered the dry period diagnosed with an IMI (cows; 3 animals (2 DC Liquid, 1 DPD enriched OE)): all 3 recovered at the start of the new lactation
- animals diagnosed with a new IMI after calving (cows; 80 ml DPD at abrupt dry off): 21%
- cases with a decrease of SCC after calving (cows; 80 ml DPD at abrupt dry off): 61%
- incidence of milk leakage (cows; 80 ml DPD at abrupt dry off, DPD treatment groups 1 and 2 combined): 17%
- reduction of risk of new IMI (cows; DPD treated groups combined vs control group): 42%
- reduction of incidence of milk leakage (cows; DPD treatment groups combined vs control group): 73%
- cows with signs of mastitis (flocks in milk) (cows; after calving, DPD treatment group): 1 cow
- cows with signs of clinical mastitis (cows; during the dry period, DPD treatment group): 1 cow
- side effects ([2]; 80 ml synthetic DPD after last milking, 46 cows): None of the cows showed any side effects
- milk fever at calving ([2]; 80 ml synthetic DPD at dry off): None of the cows had milk fever at calving
- average SCC (somatic cell count) ([2]; 80 ml synthetic DPD at dry off, first milk recording of the new lactation): 58,000 cells/ml
- milk leakage [2, 3]: less milk leakage
- stress [2, 3]: lower
- udder pressure [2, 3]: lower udder pressure
- average SCC (somatic cell count) ([2]; last milk recording of the last lactation (before dry off)): 89,000 cells/ml
